Measured values taken from PubChem BioAssay AID1845210 (Molecular Pharmacology Branch, DTP, NCI, 2023).
Several values for one entry are separate records, joined by “and”; a condition that tells them apart may be missing. Identical values can stand only once.

System: NCI-H226 complex tumor spheroids, viability
Assay: Anticancer human tumor NCI-H226 cell line growth inhibition;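 note: spheroids exposed to compound for 7 days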;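 for viability, T/C: 100% = DMSO vehicle control viability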
Conditions: for viability, T/C: stronger effect = lower value
From the text: Multicellular complex tumor spheroid response to DNA repair inhibitors in combination with DNA-damaging drugs
This study explores the anticancer activities of DNA-damaging drugs and inhibitors of DNA damage repair, both as single agents and in combinations. Complex tumor spheroids comprised of malignant cells, endothelial cells and mesenchymal stem cells served as an in vitro model for human solid tumors. This model system incorporates physiologically relevant features and patient-derived or established malignant cell lines with clinically relevant genetic alterations from many tumor types. Twenty-six patient-derived or established malignant cell lines were evaluated representing sarcoma, melanoma, small cell lung cancer (SCLC), non-small cell lung cancer (NSCLC), as well as bladder, ovarian and pancreatic cancers. The concentration ranges selected for each drug and investigational agent were based upon clinically achievable concentrations if the clinical Cmax of the agent was known.
Compounds. The drugs and compounds olaparib (NSC753686), talazoparib (NSC767125), berzosertib (NSC777718), elimusertib (NSC800525), nedisertib (NSC802822), VX-984 (NSC792969), AZD-1390 (NSC803789), temozolomide (NSC362856), topotecan (NSC609699), trabectedin (NSC813783), staurosporine (NSC755774), and gemcitabine (NSC613327) were obtained from the National Cancer Institute (NCI) Developmental Therapeutics Program Chemical Repository. The FDA-approved anticancer drug set is available from the Developmental Therapeutics Program at https://dtp.cancer.gov/organization/dscb/obtaining/available_plates.htm. […] The stock solutions were prepared in dimethyl sulfoxide (DMSO, Sigma-Aldrich, St. Louis, MO, cat. D2650) at 400-fold the tested concentration and stored at -70 degrees C. Prior to their use, the stock solutions were diluted in fresh medium and the final DMSO concentration in the assay was 0.25% (v/v). All drugs and investigational agents were tested over a range starting from a high concentration at or near the clinical Cmax and decreasing in half-log increments. If the clinical Cmax for an agent had not been determined, the highest concentration tested was 10 microM.
Cell Lines. The patient-derived cancer cell (PDC) lines: 156681-154-R-J1-PDC, 283228-195-R-J1-PDC, 287954-098-R-J1-PDC, 292921-168-R-J2-PDC, 349418-098-R-PDC, 425362-245-T-J1-PDC, 556581-035-R-J1-PDC, and BL0293-F563-PDC were received from the NCI Patient-Derived Models Repository (PDMR, https://pdmr.cancer.gov). The established cell lines HS-SY-2 (RRID:CVCL_8719), MPNST, and SYO-1 (RRID:CVCL_7146) were obtained from the Sloan Kettering Institute. The alveolar soft parts sarcoma cell line ASPS-1 (RRID:CVCL_S738) was established at the NCI and grown from internal seed stocks. The following established cell lines were purchased from the American Type Culture Collection (ATCC, Manassas, VA): G-401 (ATCC, cat. CRL-1441, RRID:CVCL_0270), SW982 (ATCC, cat. HTB-93, RRID:CVCL_1734), VA-ES-BJ (ATCC, cat. CRL-2138, RRID:CVCL_1785), NCI-H719 (ATCC, cat. CRL-5837, RRID:CVCL_1582), NCI-H196 (ATCC, cat. CRL-5823, RRID:CVCL_1509), NCI-H841 (ATCC, cat. CRL-5845, RRID:CVCL_1595), NCI-H1618 (ATCC, cat. CRL-5879, RRID:CVCL_1480), NCI-H1876 (ATCC, cat. CRL-5902, RRID:CVCL_1503), DMS 114 (ATCC, cat. CRL-2066; RRID:CVCL_1174), NCI-H211 (ATCC, cat. CRL-5824; RRID:CVCL_1529), and SW 1271 (ATCC, cat. CRL-2177, RRID:CVCL_1716). The small cell lung cancer cell line COR-L88 was purchased from Sigma-Aldrich (cat. 92031917-1VL, RRID:CVCL_1141). The non-small cell lung cancer cell lines NCI-H226 (RRID:CVCL_1544) and NCI-H322M (RRID:CVCL_1557) were established at the NCI and grown from internal seed stocks. Pooled donor human umbilical vein endothelial cells (HUVEC, Lonza, cat. CC-2519) and human mesenchymal stem cells (hMSC, Lonza, cat. PT-2501) were purchased from Lonza (Walkersville, MD).
Cell Culture. All cells were maintained in an incubator at 37 degrees C and 5% CO2 with 95% humidity. […]

[1] = compound alone, run of 12/12/2019

| IC50 (compound alone, run of 12/02/2019) [µM] | Compound | viability, T/C (compound 0.0316 µM) | viability, T/C (compound 0.1 µM) | viability, T/C (compound 0.316 µM) | viability, T/C (compound 1 µM) | viability, T/C (compound 3.16 µM) | IC50 (curve of compound) | viability, T/C (compound 10 µM) | viability, T/C (compound 0.003 µM) | viability, T/C (compound 0.03 µM) | viability, T/C (compound 0.0949 µM) | viability, T/C (compound 0.3 µM) | IC50 [1] | viability, T/C (compound 0.00949 µM) | viability, T/C (compound 0.949 µM) | viability, T/C (compound 3 µM) | viability, T/C (compound 30 pM) |
| --- | --- | --- | --- | --- | --- | --- | --- | --- | --- | --- | --- | --- | --- | --- | --- | --- | --- |
| – | CC(C)n1c(=O)n(C)c2cnc3cc(F)c(-c4ccc(OCCCN5CCCCC5)nc4)cc3c21 | 99.6% and 101% and 93.1% | 103% and 96.9% and 104% | 103% and 112% and 102% | 111% and 98% and 84.2% | 107% and 97.5% and 102% | > 10 µM and 5.69 µM and 7.57 µM | – | – | – | – | – | – | – | – | – | – |
| – | CC1COCCN1c1cc(-c2ccnn2C)c2ccnc(-c3ccn[nH]3)c2n1 (configuration not stated) | 93.9% and 94.7% and 94.8% | 102% and 91% and 82.2% | 86% and 74% and 68.6% | 60.4% and 53.3% and 47.3% | 52.5% and 44.6% and 45.4% | 2.74 µM and 1.5 µM and 1.13 µM | 42.9% and 39.2% and 35.2% | – | – | – | – | – | – | – | – | – |
| > 0.3 | CC[C@@]1(O)C(=O)OCc2c1cc1n(c2=O)Cc2cc3c(CN(C)C)c(O)ccc3nc2-1 | – | – | – | – | – | – | – | 94.5% [middle of 10 runs] | 86% [middle of 10 runs] | 86.1% [middle of 10 runs] | 66.8% [middle of 10 runs] | > 0.3 µM | – | – | – | – |
| – | CNCc1ccc(-c2cc(-c3nc(-c4ccc(S(=O)(=O)C(C)C)cc4)cnc3N)on2)cc1 | – | – | – | – | – | 0.678 µM and 1.8 µM and 1.71 µM | – | – | 126% and 123% and 90.1% | 132% and 112% and 106% | 124% and 127% and 118% | – | 109% and 97.8% and 83.3% | 20% and 109% (2×) | 0.4% and 2.72% and 0.64% | – |
| – | COc1cc(C)[nH]c(=O)c1CN1CCc2c(Cl)cc(C(OC)C3COC3)c(Cl)c2C1=O (configuration not stated) | 90.2% and 107% and 114% | 113% and 115% and 102% | 109% and 125% and 108% | 110% and 115% and 102% | 114% and 134% and 116% | > 10 µM | 116% and 120% and 108% | – | – | – | – | – | – | – | – | – |
| – | COc1cc2c(cc1O)CCNC21CSC2c3c(OC(C)=O)c(C)c4c(c3C(COC1=O)N1C(O)C3Cc5cc(C)c(OC)c(O)c5C(C21)N3C)OCO4 (configuration not stated) | – | – | – | – | – | – | – | 1.23% [middle of 10 runs] | – | – | – | 1.76 nM [middle of 10 runs] | – | – | – | 104% [middle of 10 runs] |
| – | COc1ccc([C@@H](O)c2cc(-c3ncnc4cc(N5CCOCC5)ccc34)c(F)cc2Cl)nn1 | 96.6% and 91% and 98.2% | 93.2% and 99.9% and 94.4% | 89.3% and 96.3% and 93.6% | 80.3% and 71.2% and 82.1% | 54.6% and 52.2% and 55.1% | 4.63 µM and 3.04 µM and 4.29 µM | 39.5% and 35.6% (2×) | – | – | – | – | – | – | – | – | – |
| – | Cc1cc(C)c(CNC(=O)c2cc(-c3ccc(CN4CCOCC4)cc3)cc3c2cnn3C2CCCC2)c(=O)[nH]1 | 100% (2×) and 94.5% | 102% and 112% and 103% | 99% and 107% and 112% | 83.4% and 110% and 97.2% | 91% and 115% and 98.1% | > 10 µM | 91.5% and 118% and 100% | – | – | – | – | – | – | – | – | – |
| – | Cc1sc2c(c1C)C(c1ccc(Cl)cc1)=NC(CC(=O)Nc1ccc(O)cc1)c1nnc(C)n1-2 (configuration not stated) | – | – | – | – | – | 0.592 µM and > 3 µM | – | – | 72.7% and 73.6% and 78.2% | 79.5% and 64.3% and 96.1% | 57.7% and 57.8% and 77.4% | – | 80.2% and 99.2% and 85.2% | 47.1% and 50.4% and 73.6% | 38.5% and 49.4% and 63.2% | – |
